In patent publication US6472390B1, “Use of therapeutic dosages for nitric oxide donors which do not significantly lower blood pressure or pulmonary artery pressure” (Duke University, priority 2001, dated 2002):

Key:
[1] = regardless of dosage; cited from earlier work
[2] = system: patient with uncontrolled hypertension; assay: patient with uncontrolled hypertension (Example XVI); assay type: in vivo, human; details: for exacerbation on maintenance: maintained on GSNO together with ethyl nitrite; for blood pressure (acute): oral GSNO 1 to 10 micrograms QID together with ethyl nitrite 0.025% (1 cc) 3×/day; for blood pressure (acute) / blood pressure: baseline 200/110; for blood pressure: over the following two weeks, GSNO together with ethyl nitrite
Description: A person with uncontrolled hypertension of 200/90 mm of mercury on a complex medical regimen including angiotension converting enzyme inhibitor, an alpha blocker, and beta blocker has a blood pressure of 200/110. They are begun on oral GSNO at 1 to 10 micrograms QID and ethyl nitrite 0.025% (1 cc) 3×/day. […] However, over the following two weeks the blood pressure falls to 170/100 consistent with better management of their disease.

[3] = system: patient with claudication and a leg ulcer; assay: patient with claudication and leg ulcer (Example XV); assay type: in vivo, human
Procedure: A person with risk factors of hypertension, diabetes, and hypercholestolemia and a strong family history of atherosclerosis presents with claudication and a leg ulcer. They are begun on an infusion of (SIN-1) 0.3 μm/kg per hour for a total of 1 mg with no change in blood pressure. Symptoms of rest pain resolve. They are then begun on oral S-nitrosoglutathione 1-10 μg 3×/day with improvement of duration of exercise and no recurrence of rest pain.

[4] = system: isolated buffer-perfused lungs (IPL) of rabbits; assay: isolated buffer-perfused rabbit lung, pulmonary artery pressure (Example III); details: for change in mean pulmonary artery pressure (Ppa) on injection of NO donor: GSNO 50 μM or SIN1 100 μM injected into the recirculating system; for constriction (change in Ppa) by serotonin: serotonin 1 micromolar sixty minutes after GSNO 50 μM or SIN1 100 μM
[5] = system: patient with congestive heart failure, hypotension and angina; assay: patient with congestive heart failure, hypotension and angina, intraarterial infusion (Example XIX); assay type: in vivo, human; details: 200 nmol/kg via the brachial artery over 3 minutes
Procedure: A person with congestive heart failure develops hypotension and angina. S-nitrosoglutathione (200 nmol/kg) is infused via the brachial artery over 3 minutes. The angina resolves. The systolic blood pressure rises from 85 mm Hg to 100 mm Hg.

[6] = system: patient with a transient ischemic attack; assay: patient with transient ischemic attack (Example XIII); assay type: in vivo, human
Procedure: A person presents with a transient ischemic attack evidenced by confusion and headache. Carotid dopplers show 98% new occlusion of the right carotid artery. Systolic blood pressure is 180 mm of mercury. They are given an infusion intravenously of S-nitrosocysteinyl glycine 10 μg with resolution of the headache. The systemic blood pressure remains 175 mm of mercury. Symptoms of headache and confusion resolve. The patient is then maintained on oral S-nitrosoglutathione 1-10 μg 3×/day with no recurrence of transient ischemic symptoms.

[7] = system: patient with poorly controlled asthma; assay: patient with poorly controlled asthma (Example IX); assay type: in vivo, human
Description: A person with poorly controlled asthma presents with an exacerbation. […] The frequency of asthma exacerbations decline.

[8] = system: artery rings from New Zealand white rabbits; assay: vascular ring bioassay on rabbit artery rings (Example II); details: NO donor 1 μM
Procedure: A vascular ring bioassay was carried out as follows: Artery rings (3 mm) were harvested from New Zealand white rabbits and mounted in 25 ml tissue baths filled with Krebs-Henseleit buffer and bubbled with 21% O2/5% CO2/balance N2. Isometric tension was measured. All rings in the study were suspended with similar baseline levels of tension (˜2 g). Tissue baths were thoroughly rinsed with fresh buffer between interventions. Three runs were carried out. In one run denoted the control, no additive was added. […] In a third run, SIN1 was added to provide a concentration of 1 μM. […] After flushing with solution as described in Example I, phenylephrine was then added in each case to provide a concentration of 1 to 10 μM. The results are shown in FIG. 2 where percent increase in tone is indicated on the Y-axis and additive or absence thereof (control) is indicated on the X-axis.

[9] = system: mouse aorta rings; assay: vascular ring bioassay on mouse aorta rings (Example I)
Description: The assay involves a chamber of solution into which mouse aorta ring attached to a force transducer is placed where the solution is bubbled with 21% O2/5% CO2/balance N2. The force transducer moves a pen in response to contraction and relaxation effects to give a tracing of forces (tension) in the Y-direction versus time in the X-direction on a chart. Various agents as described later are applied to the aorta rings to give to give contraction and relaxation effects. Tracings of force (tension) in the Y-direction versus time in the X-direction are obtained with upward direction indicating contraction and downward direction indicating relaxation. […] On FIG. 1, “E” means application of phenylephrine, a constricting agent, and the concentrations thereof at particular times are denoted; “ACh” means application of acetyIcholine (which causes a relaxation effect in response to endogenous nitric oxide) and the concentration thereof at particular times are denoted; and “GSNO” means application of S-nitrosoglutathione, an NO donor, and the concentrations thereof at particular times are denoted. […] As further shown in FIG. 1, flushing is then carried out three times then and one more time; the flushing is carried out (with Krebs-Henseleit solution described hereinafter in Example III) and removes the acetylcholine. As further shown in FIG. 1, phenylephrine is then applied starting at a concentration of 10^−7 molar increasing to a concentration of 10^−5.5 molar. […] As further shown in FIG. 1, flushing is then carried out three times (with Krebs-Henseleit solution); and then one more time with the same flushing agent; this flushing removes the S-nitrosoglutathione.

[10] = system: patient with primary pulmonary hypertension class II; assay: patient with primary pulmonary hypertension (Example VIII); assay type: in vivo, human
Procedure: […] They are given 10 mM GSNO in 1 cc saline nebulized 3×/day. Symptoms of shortness of breath resolve but pulmonary artery pressure and systemic pressure are unchanged with acute administration. After four months of therapy, pulmonary artery pressure has dropped by 5 mm of mercury and the patient's symptoms have improved. The patient is subsequently given oral GSNO at 10 μg TID and doses are empirically changed to prevent any significant change in blood pressure.

[11] = system: patient with severe three vessel disease; assay: patient with severe three vessel coronary disease (Example XVII); assay type: in vivo, human; details: oral, titrated so that resting systolic blood pressure does not change; three years
Description: They do well with no symptoms of coronary disease over the following three years.

[12] = system: patient with recurrent episodes of acute vasospastic angina; assay: patient with acute vasospastic angina (Example VII); assay type: in vivo, human
Procedure: A person who complains of recurrent episodes of acute vasospastic angina is treated with S-nitrosoglutathione (GSNO) at 1-1,000 μg orally 4×/day. Blood pressure is unchanged and acute symptoms resolve. In addition, the frequency of vasospastic chest pain decreases over the following three weeks.

[13] = system: platelets; details: doses that do not acutely drop blood pressure; cited from earlier work
[14] = system: patient receiving erythropoietin who develops chest pain; assay: patient on erythropoietin with chest pain, thiol (Example XXI); assay type: in vivo, human
Description: A person receiving erythropoietin to raise red blood count depleted by renal failure, develops chest pain (caused by increased concentration of red blood cells).

[15] = system: patient receiving erythropoietin who develops chest pain; assay: patient on erythropoietin with chest pain, NO donor infusion (Example XX); assay type: in vivo, human; details: infusion 1-10 nmolkg/min
Description: A person receiving erythropoietin to raise red blood count depleted because of treatment for cancer or renal failure, develops chest pain (caused by increased concentration of red blood cells).

[16] = system: dogs; assay: systemic infusion of NO donor into dogs, systemic blood pressure (Example VI); assay type: in vivo, dog; details: without and with ischemia, S-nitrosocysteine 3 nmol/kg or S-nitrosoalbumin 10 nmol/kg infused systemically
Description: In another case, S-nitrosocysteine (3 nmol/kg) or S-nitrosoalbumin (10 nmol/kg) is infused systemically into dogs. […] The response to S-nitrosoalbimim infusion is no different. The infusions of NO donors result in reaction with membrane receptors in red blood cells.

[17] = system: patient with symptoms of depression; assay: patient with depression (Example XIV); assay type: in vivo, human
Procedure: A person presents with symptoms of depression. They are begun on oral molsidomine (SIN-1) 10 μg per kg dose-adjusted so that blood pressure is unchanged. Over the following three weeks the symptoms of depression resolve and the patient is maintained on this dose with no recurrence.

[18] = system: patient with esophageal spasm; assay: patient with esophageal spasm (Example XI); assay type: in vivo, human
Description: A alcoholic with esophageal spasm is given 2 cc of 0.125% ethyl nitrite in ethanol 3×/day.

[19] = system: infant with pyloric stenosis; assay: infant with pyloric stenosis (Example XII); assay type: in vivo, human; details: 2 cc of 0.125% in ethanol 3×/day
Description: An infant with pyloric stenosis is given 2 cc of 0.125% ethyl nitrite in ethanol 3×/day.
Symptoms of intestinal pain resolve.

[20] = system: patient with recurrent rectal spasm; assay: patient with recurrent rectal spasm (Example X); assay type: in vivo, human
Description: A person with recurrent rectal spasm is given oral ethyl nitrite 0.125% in ethanol (1 cc) 3×/day. […] They then continued on this therapy with a decrease in incidence of rectal pain.

[21] = system: patient with anxiety and stress; assay: patient with anxiety and stress (Example XVIII); assay type: in vivo, human; details: ½ to 1 inch patch 3×/day titrated to avoid change in blood pressure or headache
[22] = system: rats; assay: infusion into rats, mean arterial blood pressure and heart rate (Example IV); assay type: in vivo, rat
Procedure: Rats (n=4) were infused via femoral vein with 200 nmol/kg of S-nitrosothiol (S-nitrosohemoglobin). Mean arterial blood pressure (MAP) and heart rate (HR) were measured.
In another case, rats (n=4) were infused via femoral artery with 200 nmol/kg of S-nitrosothiol (S-nitrosohemoglobin). Mean arterial blood pressure (MAP) and heart rate (HR) were measured.

[23] = infusion 0.3 μm/kg per hour for a total of 1 mg
[24] = oral 0.125% in ethanol (1 cc) 3×/day
[25] = 200 nmol/kg via femoral artery, rats
[26] = 200 nmol/kg via femoral vein, rats

## O=C(Oc1cccc(CO[N+](=O)[O-])c1)c1ccccc1O [B-NOD, 2-hydroxybenzoic acid 3-nitrooxymethylphenyl ester]
[1]
  acute lowering of mean arterial blood pressure: ≤ 10%

## N[C@@H](CCC(=O)N[C@@H](CSN=O)C(=O)NCC(=O)O)C(=O)O [GSNO, S-nitrosoglutathione]
[2]
  exacerbation on maintenance: no further exacerbation
  blood pressure (acute): does not change
  blood pressure: 170/100
[3]; oral 1-10 μg 3×/day
  duration of exercise: improvement
  recurrence of rest pain: no recurrence
[4]
  change in mean pulmonary artery pressure (Ppa) on injection of NO donor: did not cause change in Ppa
  constriction (change in Ppa) by serotonin: prevented constriction
[5]
  angina: resolves
[5]; rises from 85 mm Hg
  systolic blood pressure after infusion: 100 mm Hg
[6]; oral 1-10 μg 3×/day maintenance
  recurrence of transient ischemic symptoms: no recurrence
[7]; oral 10 μg Q 6 hours, continued
  frequency of asthma exacerbations: decline
[8]
  effect on resting tone (relaxing effect): no effect on resting tone
[9]; S-nitrosoglutathione 1 nanomolar increasing to 10 micromolar
  effect on tension of phenylephrine-contracted ring: relaxing (contraction-attenuating) effect
[9]; phenylephrine 10^-7 to 10^-5 molar after S-nitrosoglutathione removed by flushing
  contracting response to phenylephrine after pretreatment and flushing: does not cause a contracting response
[10]; 10 mM in 1 cc saline nebulized 3×/day
  symptoms of shortness of breath: resolve
[10]; acute administration, 10 mM in 1 cc saline nebulized
  pulmonary artery pressure and systemic pressure: unchanged
[10]; after four months of therapy
  drop of pulmonary artery pressure: 5 mm of mercury
  patient's symptoms: improved
[11]
  symptoms of coronary disease: no symptoms
[12]; 1-1,000 μg orally 4×/day
  acute symptoms of vasospastic angina: resolve
  blood pressure: unchanged
[12]; over the following three weeks
  frequency of vasospastic chest pain: decreases
[13]
  thromboembolic events: inhibit other thromboembolic events

## CC(=O)N[C@@H](CS)C(=O)O [N-acetylcysteine]
[14]; 600 ng, PO, TID
  frequency of angina: decreases
[14]; 600 ng, PO, TID, over three weeks
  blood pressure: drops
[14]; infusion 50 ng/kg
  blood pressure: without a change
  chest pain: alleviating their chest pain

## CCOC(=O)[C@@H](N)CSN=O [S-nitrosocysteine ethyl ester]
[7]; inhaled 1-1,000 μg nebulized in 10 cc
  airway tone: does not significantly improve
[7]; over the following three days
  acute episode of asthma: brought under control
[15]
  blood pressure: without a change
  chest pain: alleviating chest pain

## N[C@@H](CSN=O)C(=O)O [S-nitrosocysteine]
[16]
  systemic blood pressure: no effect

## N[C@@H](CSN=O)C(=O)NCC(=O)O [S-nitrosocysteinyl glycine]
[6]; after intravenous infusion 10 μg, systolic 180 mm of mercury before
  systemic blood pressure: 175 mm of mercury
[6]; intravenous infusion 10 μg
  symptoms of headache and confusion: resolve

## CCOC(=O)[N-]c1cn(N2CCOCC2)n[o+]1 [SIN1, molsidomine]
[3]; [23]
  blood pressure: no change
  symptoms of rest pain: resolve
[4]
  change in mean pulmonary artery pressure (Ppa) on injection of NO donor: did not cause change in Ppa
  constriction (change in Ppa) by serotonin: prevented constriction
[17]; maintained on this dose
  recurrence of depression: no recurrence
[17]; oral 10 μg per kg dose-adjusted so that blood pressure is unchanged, over three weeks
  symptoms of depression: resolve
[8]
  effect on resting tone (relaxing effect): did not cause a relaxing effect

## CCON=O [ethyl nitrite]
[2]
  exacerbation on maintenance: no further exacerbation
  blood pressure (acute): does not change
  blood pressure: 170/100
[18]; 2 cc of 0.125% in ethanol 3×/day
  symptoms of esophageal pain: resolve
[18]; same maintenance dose
  recurrence of symptoms: do not recur
[19]
  symptoms of intestinal pain: resolve
[20]; continued therapy
  incidence of rectal pain: decrease
[20]; [24]
  blood pressure: does not change
  symptoms of rectal pain: resolve

## O=[N+]([O-])OCC(CO[N+](=O)[O-])O[N+](=O)[O-] [nitroglycerin]
[21]
  symptoms of anxiety and stress: alleviated in 4 days

## CNC[C@H](O)c1cccc(O)c1 [phenylephrine]
[9]; phenylephrine 10^-8 molar increasing to 10^-5.5 molar
  effect on tension of ring: contracting effect

## S-nitrosohemoglobin
[22]; [25]
  heart rate: increased
  mean arterial blood pressure: increased
[22]; [26]
  heart rate: no effect
  resting blood pressure (MAP): no effect
[22]; higher doses of S-nitrosothiol
  blood pressure: fall
